Structures can show the parent of a compound that is named as a salt. Where two headings read alike, the source gives them in different places.
Tested on: mice
Experiment: Neuropharmacological Assay (SmartCube): automated behavioral signature of compound-treated mice compared with a database of reference drug classes
Assay type: in vivo
Details: for MED / MED (minimal effective dose) / minimal effective dose: i.p., that dose is shown; for minimal effective dose: Mus musculus, ip
Summary of the method: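 Compounds in N-methyl-2-pyrrolidone/polyethylene glycol/propylene glycol were given i.p. 15 min before testing, at 3 doses; values shown are for 3.0 mg/kg. Video-captured behaviour was matched by algorithm against reference drug classes, giving a probability per class. MED: lowest dose reaching ≥45% total activity.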

[1] = SmartCube probability class, 3.0 mg/kg dose, i.p. 15 min before the behavioral test
[2] = SmartCube probability class, 3.0 mg/kg dose, i.p. 15 min before the behavioral test, hydrochloride, 3 mg/kg
[3] = minimal effective dose: dose having 45% or more total activity in SmartCube, if only one dose was tested, hydrochloride
[4] = dose having 45% or more total activity in SmartCube, if only one dose was tested, hydrochloride
[5] = probability that activity matches this class of agents, 3.0 mg/kg i.p., 15 min before test
[6] = probability that activity matches this class of agents, 3.0 mg/kg i.p., 15 min before test, hydrochloride, 3 mg/kg
[7] = SmartCube class probability, 3.0 mg/kg i.p., 15 min before test
[8] = SmartCube class probability, 3.0 mg/kg i.p., 15 min before test, hydrochloride, 3 mg/kg
[9] = minimal effective dose: dose having 45% or more total activity in SmartCube, if only one dose tested, hydrochloride
[10] = probability that activity matches this class of agents, 3.0 mg/kg i.p., 15 min before test, 3 mg/kg
[11] = minimal effective dose: dose having 45% or more total activity in SmartCube, if only one dose tested, read-out: MED

N#Cc1scc2c1CC(N)CC2 (single isomer, unassigned) [Compound 313, 6-amino-4,5,6,7-tetrahydro-2-benzothiophene-1-carbonitrile hydrochloride]
>3 mpk: MED [3]
+ (≥4%): UK [2]
ND (^ <4%): AD [1] | AG [1] | AN [1] | AP [1] | AX [1] | CE [1] | HL [1] | MS [1] | PS [1] | SH [1]

CNC1Cc2ccsc2C1.Cl (single isomer, unassigned) [Compound 19, N-methyl-5,6-dihydro-4H-cyclopenta[b]thiophen-5-amine hydrochloride]
3.0 mpk: MED (minimal effective dose) [4]
+ (≥4%): AP [5] | UK [6]
++ (≥24%): AD [6] | AX [6]
ND (^ <4%): AG [5] | AN [5] | HL [5] | MS [5] | PS [5] | SH [5] | CE [6]

CNC1COc2c(C(F)(F)F)csc2C1 (single isomer, unassigned) [Compound 310, N-methyl-3-(trifluoromethyl)-6,7-dihydro-5H-thieno[3,2-b]pyran-6-amine hydrochloride]
>3 mpk: MED [3]
ND (^ <4%): AD [1] | AG [1] | AN [1] | AP [1] | AX [1] | CE [1] | HL [1] | MS [1] | PS [1] | SH [1]
++ (≥24%): UK [2]

CNC1CCc2scc(C#N)c2C1 (single isomer, unassigned) [Compound 175, 5-(methylamino)-4,5,6,7-tetrahydrobenzothiophene-3-carbonitrile hydrochloride]
+ (≥4%): SH [7]
3 mpk: MED [9]
ND (^ <4%): AD [7] | AG [7] | AN [7] | AP [7] | CE [7] | HL [7] | MS [7] | PS [7] | UK [7]
+++ (≥49%): AX [8]

CNC1CCc2scc(Br)c2C1 (centres unmarked) [Compound 108, 3-bromo-N-methyl-4,5,6,7-tetrahydrobenzothiophen-5-amine hydrochloride]
< 3 mg/kg: minimal effective dose (dose having 45% or more total activity in SmartCube, if only one dose was tested, read-out: MED (minimal effective dose))
++++ (≥74%): AP [5]
ND (^ <4%): AD [5] | AG [5] | AN [5] | AX [5] | CE [5] | HL [5] | MS [5] | PS [5] | SH [5] | UK [5]

CNC1Cc2scc(C3CC3)c2C1 (single isomer, unassigned) [Compound 320, 3-cyclopropyl-N-methyl-5,6-dihydro-4H-cyclopenta[b]thiophen-5-amine hydrochloride]
++ (≥24%): UK [2]
> 3 mg/kg: minimal effective dose (minimal effective dose: dose having 45% or more total activity in SmartCube, if only one dose was tested, read-out: MED)
ND (^ <4%): AD [1] | AG [1] | AN [1] | CE [1] | HL [1] | MS [1] | PS [1] | SH [1] | AP [2] | AX [2]

CNC1CCc2c(C(F)(F)F)sc(C)c2C1 (single isomer, unassigned; enantiomer 2) [Compound 107, N, 3-dimethyl-1-(trifluoromethyl)-4,5,6,7-tetrahydro-2-benzothiophen-5-amine hydrochloride enantiomer 2]
10 mpk: MED (minimal effective dose) (dose having 45% or more total activity in SmartCube, if only one dose was tested)
ND (^ <4%): AG [5] | AN [5] | AP [5] | AX [5] | CE [5] | HL [5] | MS [5] | PS [5] | SH [5] | AD [10] | UK [10]

NC1CCc2sc(Cl)c(Cl)c2C1 (centres unmarked) [Compound 219, 2,3-dichloro-4,5,6,7-tetrahydrobenzothiophen-5-amine hydrochloride]
ND (^ <4%): AD [7] | AG [7] | AN [7] | AP [7] | AX [7] | CE [7] | HL [7] | MS [7] | PS [7] | SH [7]
> 3 mg/kg: minimal effective dose [11]
++ (≥24%): UK [7]

Cc1cc2c(s1)CC(N)CO2 (centres unmarked) [Compound 188, 2-methyl-6,7-dihydro-5H-thieno[3,2-b]pyran-6-amine hydrochloride]
> 3 mg/kg: minimal effective dose [11]
+ (≥4%): AX [7]
++ (≥24%): UK [7]
ND (^ <4%): AD [7] | AG [7] | AN [7] | AP [7] | CE [7] | HL [7] | MS [7] | PS [7] | SH [7]

Cc1cc2c(s1)CCC(N)C2 (centres unmarked) [Compound 185, 2-methyl-4,5,6,7-tetrahydrobenzothiophen-5-amine hydrochloride]
++ (≥24%): UK [7]
ND (^ <4%): AD [7] | AG [7] | AN [7] | AP [7] | AX [7] | CE [7] | HL [7] | MS [7] | PS [7] | SH [7]

Cc1scc2c1CCC(N)C2 (single isomer, unassigned) [Compound 164, 1-methyl-4,5,6,7-tetrahydro-2-benzothiophen-5-amine hydrochloride]
+++ (≥49%): AD [8]
3 mg/kg: minimal effective dose [11]
ND (^ <4%): AG [7] | AN [7] | AP [7] | AX [7] | CE [7] | MS [7] | PS [7] | SH [7] | UK [7] | HL [8]

CNC1CCCc2cscc2C1 (single isomer, unassigned) [Compound 169, N-methyl-5,6,7,8-tetrahydro-4H-cyclohepta[c]thiophen-5-amine hydrochloride]
3 mpk: MED [9]
ND (^ <4%): AD [7] | AG [7] | AN [7] | CE [7] | HL [7] | MS [7] | PS [7] | SH [7] | AP [8] | AX [8]
++ (≥24%): UK [8]

CNC1CCc2c(F)sc(F)c2C1 (single isomer, unassigned) [Compound 78, 1,3-difluoro-N-methyl-4,5,6,7-tetrahydro-2-benzothiophen-5-amine hydrochloride]
1 mpk: MED (minimal effective dose) [4]
+ (≥4%): UK [6]
++ (≥24%): AP [5] | AX [6]
ND (^ <4%): AG [5] | AN [5] | CE [5] | HL [5] | MS [5] | PS [5] | SH [5] | AD [6]

NC1COc2c(C3CC3)csc2C1 (single isomer, unassigned) [Compound 330, 3-cyclopropyl-6,7-dihydro-5H-thieno[3,2-b]pyran-6-amine hydrochloride]
+ (≥4%): UK [2]
>3 mpk: MED [3]
ND (^ <4%): AG [1] | AN [1] | AP [1] | AX [1] | CE [1] | HL [1] | MS [1] | PS [1] | SH [1] | AD [2]

Cc1csc2c1CCC(N)C2 (single isomer, unassigned) [Compound 66, 3-methyl-4,5,6,7-tetrahydrobenzothiophen-6-amine hydrochloride]
ND (^ <4%): AG [5] | AN [5] | AX [5] | CE [5] | MS [5] | SH [5] | UK [5] | AD [6] | HL [6] | PS [6]
1 mpk: MED (minimal effective dose) [4]
++++ (≥74%): AP [6]
